Measured values taken from US9862690B2, “Treatment of pulmonary and other conditions” (University of Pittsburgh—of the Commonwealth System of …, priority 2013, dated 2018).

How the values were obtained:
p65 subunit of NF-κB = target: T1, p65 subunit of NF-κB (Homo sapiens, UniProt Q04206); assay: LPS-induced NF-κB p65 DNA-binding activity in BEAS-2B cells; type: cell-based; conditions: 1 h pre-treatment, then LPS 6 h
T1 construct: endogenous in cells; host or cells: BEAS-2B
Procedure: BEAS-2B cells were treated with varying concentrations of PB141 for 24 h, after which (A) Nrf2 activity was measured or (C) nuclear Nrf2 concentration was determined by Western blotting. (B) In other experiments cells were pretreated with varying concentrations of PB141 for 1 h, then with LPS (500 ng/ml) for 6 h. Cells were then isolated and activity of NF-κB was measured.
BEAS-2B cells were cultured in Dulbecco's modified Eagle's medium (DMEM) containing 10% heat-inactivated fetal bovine serum, penicillin, and streptomycin (100 IU/ml). Monolayer cultures were treated with different concentrations of PB141 for 24 h. Cells were then isolated and the DNA-binding activity of the antioxidant transcription factor Nrf2 was determined. The nuclear concentration of Nrf2 was also determined by Western blotting. […] In some experiments monolayer cultures were deprived of serum for 24 h, pre-treated with different concentrations of PB141 for 1 h, then exposed to LPS for 6 h. Nuclear proteins were prepared and were used to quantify DNA-binding activity of the p65 subunit of NF-κB.

[1] = tested on: cigarette smoke-induced COPD in mice; assay: Cigarette smoke-induced COPD model; type: in vivo
Procedure: COPD was induced by exposure of mice to whole-body cigarette smoke for 5 days, at the end of which the mice were euthanized and cells and levels of mediators were obtained from the pulmonary airspace by bronchoalveolar lavage. Some mice received PB141 (25 mg/kg) simultaneously with the cigarette smoke (A-I).
Mice were exposed 5 days per week for 4 wk (sub-acute exposure) to the smoke of five cigarettes (Reference Cigarette 2R4F without filter; University of Kentucky) administered four times per day with a 30-min smoke-free interval between exposures. An optimal smoke:air ratio of 1:6 was obtained. In preventive studies, tobacco smoke exposure was paralleled by delivery of a nebulized solution containing PB141 (25 mg/kg) or vehicle (saline) via a micropump nebulizer (Buxco Research Systems, Wilmington, N.C.). At the conclusion of smoke exposure the extent of lung inflammation was assessed by counting polymorphonuclear neutrophils (PMNs) in bronchoalveolar lavage fluid and measuring lung vascular permeability, edema, pulmonary lymphoid aggregation, and generation of inflammatory chemokines and cytokines. Emphysema was assessed by destruction of alveolar walls, quantitated as the destructive index (DI), and by enlargement of alveolar spaces, quantitated by the mean linear intercept (Lm). Airway remodeling was assessed by staining collagen in the airway wall and by measuring the amount of fibronectin. Lung histology sections were assessed for inflammation and injury following hematoxylin and eosin (H&E) staining. Lymphoid aggregates were quantification by morphometric analysis.

[2] = tested on: OVA allergen-induced asthma in mice; assay: Ovalbumin-induced asthma model; type: in vivo; conditions: 25 mg/kg nebulized 30 min after each OVA challenge
Procedure: Allergen-induced asthma was produced in mice by initial sensitization by intraperitoneal (i.p.) injection of OVA on days 0 and 7 and challenge by intratracheal injection of OVA on even-numbered days 14 through 22. Thirty minutes following each OVA challenge, PB141 (25 mg/kg) or vehicle (saline) was nebulized and delivered to cage air via a micropump nebulizer. Twenty-four hours after the last challenge and nebulization; airway hyperresponsiveness to increasing concentrations of inhaled methacholine was determined by the forced oscillation (flexiVent) method. (A) Airway resistance. (B) Airway elastance. Data are representative of one of two independent experiments with n=6-8 mice per group.
Allergen induced asthma was produced in mice by initial sensitization by intraperitoneal (i.p.) injection of OVA on days 0 and 7 and challenge by intratracheal injection of OVA on even-numbered days 14 through 22. Thirty minutes after each OVA challenge, PB141 (25 mg/kg) or vehicle (saline) was nebulized and delivered to cage air via a micropump nebulizer. Twenty-four hours following the last challenge and nebulization, BAL fluid, plasma, and lung samples were obtained. (A) Total and differential cell count in BAL fluid. (B) Microscopic examination following staining of BAL fluid. (C) H2O2 production, (D) Protein concentration in BAL fluid. Data are representative of one of two independent experiments with n=7-10 mice per group; *** p<0.001.
Allergen-induced asthma was produced in mice by initial sensitization by intraperitoneal (i.p.) injection of OVA on days 0 and 7 and challenge by intracheal injection of OVA on even-numbered days 14 through 22. Thirty minutes after each OVA challenge, PB141 (25 mg/kg) or vehicle (saline) was nebulized and delivered to cage air via a micropump nebulizer. Twenty-four hours following the last challenge and nebulization lung samples were obtained. The lung was examined histologically following (A) H&E staining, (B) trichrome staining, and (C) periodic acid Schiffs (PAS) staining. Data are representative of one of two independent experiments with n=7-10 mice per group.
Allergen induced asthma was produced in mice by initial sensitization by intraperitoneal injection of OVA on days 0 and 7 and challenge by intratracheal injection of OVA on even-numbered days 14 through 22. […] Twenty-four hours following the last challenge and nebulization. airway hyperresponsiveness to methacholine challenge was measured noninvasively by whole body plethysmography (WBP; Buxco Research Systems, Wilmington, N.C.) and, invasively by computer-controlled ventilator (flexiVent; SCIREQ Inc., Montreal, Canada). Cellular Infiltration into the airspace was assessed by measuring myeloperoxidase activity in the lung and the number of polymorphonuclear neutrophils and eosinophils in bronchoalveolar lavage fluid (BALF). Lung inflammation was assessed by vascular permeability, edema, and cytokine generation. Anti-OVA IgE concentrations in the serum were measured using an ELISA kit (MD Bioproducts, St. Paul, Minn.). Lung histology sections were assessed by morphometry, with May-Grünwald-Giemsa or Periodic acid-Schiff (PAS) staining used for detection of mucopolysaccharide accumulation, Sirius Red or Masson's trichrome staining for detection of collagen deposition, and hematoxylin and eosin (H&E) staining for assessment of inflammation. Lung collagen content was determined by quantifying soluble collagen with the Sircol Collagen Assay Kit (Biocolor).

[3] = 25 mg/kg nebulized in parallel with smoke exposure

T1 sequence (Q04206 whole entry): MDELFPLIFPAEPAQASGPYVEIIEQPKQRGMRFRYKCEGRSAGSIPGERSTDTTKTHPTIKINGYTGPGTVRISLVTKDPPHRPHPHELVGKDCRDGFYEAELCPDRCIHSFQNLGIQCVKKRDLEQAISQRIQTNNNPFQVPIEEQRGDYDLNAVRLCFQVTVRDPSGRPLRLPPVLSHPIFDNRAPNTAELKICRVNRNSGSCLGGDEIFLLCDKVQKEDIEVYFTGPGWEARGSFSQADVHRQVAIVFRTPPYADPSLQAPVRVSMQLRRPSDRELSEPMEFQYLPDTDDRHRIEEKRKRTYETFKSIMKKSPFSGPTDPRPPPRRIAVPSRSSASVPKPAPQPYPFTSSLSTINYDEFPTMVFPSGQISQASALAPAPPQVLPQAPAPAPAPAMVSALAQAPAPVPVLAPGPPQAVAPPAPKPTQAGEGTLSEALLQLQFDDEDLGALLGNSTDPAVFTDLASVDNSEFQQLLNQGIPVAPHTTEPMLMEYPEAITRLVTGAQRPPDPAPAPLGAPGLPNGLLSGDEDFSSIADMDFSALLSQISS

## CC(=O)N[C@@H](CSC(CC(=O)CC(SC[C@H](NC(C)=O)C(=O)O)c1cnccn1)c1cnccn1)C(=O)O (some centres unmarked) [PB141]
p65 subunit of NF-κB; 1 μM
  Inhibition of NF-κB activity at 1 μM: almost complete inhibition
p65 subunit of NF-κB; different concentrations
  NF-κB activity (p65 DNA-binding): inhibited NF-κB activity in a concentration-dependent manner
[1]; [3]
  Airway wall remodeling: significantly decreased
  Cigarette smoke-induced increase of inflammatory cells in the lungs: significantly decreased
  Development of pulmonary hypertension: significantly decreased
  Emphysema: significantly decreased
  Generation of inflammatory chemokines and cytokines: significantly decreased
  Pulmonary lymphoid aggregates: significantly decreased
[1]; administration by nebulization
  Phagocytic ability of alveolar macrophages: improved
[2]
  Airway hyperresponsiveness to methacholine: significantly suppressed
  Airway remodeling: lessening
  Expression of cytokines, chemokines, and IgE in BALF and serum: attenuated
  Infiltration of inflammatory cells into the airspace and lung: suppressed
  Mucus accumulation: lessening
